Data on nine compounds can be found in patent US20080242870A1 (priority 2006, published 2008).

Where “and” joins values, the source holds several entries; their conditions need not be identical. Equal values may be shown once. Read-outs that look alike come from different tables or passages of the source.

For data set [1] the following is noted: depending on the solvent.
Experimental: (§2) Luminescence lifetimes were measured with an IBH time-correlated single photon counting (TCSPC) system equipped with an IBH Model TBX-04 Photon Detection Module. The excitation source for the TCSPC measurements was a pulsed LED (IBH NanoLED, 455 nm, 1.3 ns pulse duration or 403 nm, <200 ps pulse duration) with a repetition rate of 1 MHz. All data was analyzed by iterative reconvolution of the decay profile (10,000 counts at the peak channel) with the instrument response function using software provided by the instrument manufacturer.
Experiment in data set [2]: not given
This is another data set of the same source.

For data set [3] the following is noted: cited from earlier work.
A short description of data set [4]: Sodium sensing: quantum yield vs sodium perchlorate concentration. As to conditions: in acetonitrile. The protocol: The benzo 15-crown-5 anthracene diimide derivative was synthesized because crown ethers are known for their ability to bind with metals. […] The extinction coefficient, ∈, was determined to be 16,000 M^−1 cm^−1 and the quantum yield, Φ, 0.02 (both were measured in acetonitrile). The emission spectrum for this compound was more complicated than the others. An excimer effect was evident in higher concentration samples and was more prominent in non-polar solvents. The excimer complicated the lifetime in toluene with a short component for the excited dimer state.

Data set [5] is described as follows: Emission spectrum and quantum yield of perylene diimide (Example 5). Format: physicochemical.
Another data set is described as follows: Solubility. As to conditions: polar organic solvents.
The nature of data set [6]: Absorption spectrum of perylene diimide (Example 5). Format: physicochemical. As to conditions: CH2Cl2.
The nature of data set [7]: Fluorescence lifetime by TCSPC (Example 5). The data set is classed as physicochemical. As to conditions: room temperature, CH2Cl2.
Experimental: as §2
Data set [8] in a line: Fluorescence quenching by 2,4-dinitrotoluene (Stern-Volmer). As to conditions: concentrated and dilute solutions in toluene.
Data set [9] can be described thus: Absorption spectra of anthracene diimides in solvents of increasing polarity (Example 1). The data set is classed as physicochemical.
Data set [10] can be described thus: Radiative quantum yield against standards (Example 1). Format: physicochemical. The protocol:
(§1) Unless otherwise stated, all experiments used optically dilute solutions (Optical Density (OD)<0.2) at room temperature. […] Emission spectra were obtained with an Aminco-Bowman luminescence spectrometer (Series 2). The excitation was accomplished with a 150 W Xe lamp optically coupled to a monochrometer (+2 nm). The emission was collected at […] and passed through a second monochrometer (±2 nm). Luminescence was measured with a photomultiplier tube (PMT).

Data set [11] in a line: Sub-ambient (77 K) emission in 2-methyltetrahydrofuran. Format: physicochemical. As to conditions: 2-methyltetrahydrofuran, 405 nm excitation, listed as DC (39). Here is the method:
FIGS. 7a and 7b show normalized emission spectra for the diphenyl anthracene diimides (top) and the tetraphenyl anthracene diimides (bottom) at 77° K in 2-methyltetrahydrofuran and 405 nm excitation.
In an attempt to better understand the excited state properties of the diphenyl and tetraphenyl anthracene diimides, sub-ambient (77 K) emission experiments were performed, with the results shown in FIGS. 7a and 7b. In the case of the diphenyl derivatives, DPO (35), DP (37), and DC (39) display similar emission spectra with overlapping bands near 434 nm, […], and 492 nm. Although the peak ratios differ slightly, the band shapes and positions are nearly identical. […] Similar results are observed for the tetraphenyl series. Here, TPO (40) and TP (41) display spectral features analogous to DPO (35), DP (37), and DC (39), but at lower energy.

Data set [12] in a line: Stokes shift / Lippert-Mataga solvatochromic analysis. Format: physicochemical. From the text:
The solvatochromic response of the anthracene diimides to photoexcitation was further characterized by analysis of the Stokes' shift and Lippert-Mataga polarity parameter,
where v is the Stokes' shift in wavenumbers, h is Plank's constant, c is the speed of light, ∈0 is the permittivity of free space, Δμ is the change in the dipole moment upon excitation, α^3 is the molecule's volume, as is the solvent dielectric constant, and n is the solvent refractive index. This relationship quantifies the change in dipole between the ground state and excited state of a molecule and, when used with the calculated ground state dipole, the magnitude of the excited state dipole moment may be estimated. Each line represents a solvatochromic emission component of the corresponding diimide. All other bands were not solvatochromic and not included in the analysis. For example, the emission spectra of DPO (35) in the selection of solvents were nearly identical and could not be used in the Lippert-Mataga correlations. DP (37) had two components in the emission profiles; a higher energy band that quickly disappeared with increasing solvent polarity and a lower energy component that red-shifted with increasing solvent polarity.

Data set [13] can be described thus: Emission spectra of anthracene diimides at room temperature (Example 1). As to conditions: (p) peak, (s) shoulder. The data set is classed as physicochemical. Here is the method: as §1
A short description of data set [14]: Luminescence lifetime by TCSPC (Example 1). As to conditions: TCSPC 370 nm pulsed LED. Format: physicochemical.
Experimental: as §2

With “N,N′-Bis(methyl 18-crown-6)-1,5-bis(phenyl)anthracene-2,3,6,7-tetracarboxyl diimide”, the “lifetime (single exponential)” value in data set [1] is 5.5-6.5 ns. In addition, the “extinction coefficient, ∈” value (in toluene) is listed as 12,500 M^−1 cm^−1. In data set [2] (in toluene), the “quantum yield, Φ” value is reported as 0.37.
On to “N,N′-Bis(p-(tert-butyl)phenyl)-1,5-bis(phenyl)anthracene-2,3,6,7-tetracarboxyl diimide”, for which the “lifetime (single exponential)” value in data set [1] is listed as “around 5.5 ns”. Besides, the “extinction coefficient, ∈” value (in toluene) is on record as 8,500 M^−1 cm^−1. Also, the “quantum yield, Φ” value in [2] (in toluene) turned out to be 0.29.
As for `c1ccc2cc3ccccc3cc2c1` [anthracene], the Φr of standard in data set [3] (in EtOH) was 0.27.
As to “N,N′-Bis(benzo 15-crown-5)-1,5-bis(phenyl)anthracene-2,3,6,7-tetracarboxyl diimide”, the “extinction coefficient, ∈” value (in acetonitrile) is listed as 16,000 M^−1 cm^−1. In addition, in [4], the sodium sensing result is “effective sensor of sodium perchlorate”. Further, the “quantum yield, Φ” value in data set [2] (in acetonitrile) stood at 0.02.
`CCCCCCCCn1c(=O)c2c(-c3ccccc3)c3cccc4c3c(c3cccc5c(-c6ccccc6)c6c(=O)n(CCCCCCCC)c(=O)c6c4c53)c2c1=O` [Compound 59, N,N′-Bis(octyl)-3,9-bis(phenyl)-perylene-1,2,7,8-tetracarboxyl diimide]: the quantum yield in data set [5] (measured against fluorescein) is listed as 0.67. In data set [5] (room temperature, CH2Cl2), the “Stokes' shift” value is on record as 26 nm. In [5] (room temperature, CH2Cl2, 425 nm excit.), the “fluorescence λmax” value amounted to 517 nm. The solubility entry in the data set “Solubility” was “soluble in polar organic solvents”. In addition, in data set [6] (at absorption λmax), the extinction coefficient was 29,000 M^−1 cm^−1. Besides, the “absorption λmax” value in data set [6] (room temperature) was roughly 491 nm. In data set [7], this compound came in with a single exponential lifetime of 5.01 ns.
Consider “N,N′-Bis(p-triphenyl amine)-1,5-bis(phenyl)anthracene-2,3,6,7-tetracarboxyl diimide”, for which the “2,4-dinitrotoluene sensing (quenching)” value in data set [8] was “effective 2,4-dinitrotoluene (DNT) sensor”. Besides, the “extinction coefficient, ∈” value (in toluene) is listed as 22,000 M^−1 cm^−1. Also, the “quantum yield, Φ” value in data set [2] (in toluene) is 0.09.
For `F[P-](F)(F)(F)(F)F.F[P-](F)(F)(F)(F)F.[Ru+2].c1ccc(-c2ccccn2)nc1.c1ccc(-c2ccccn2)nc1.c1ccc(-c2ccccn2)nc1` [[Ru(bpy)3](PF6)2], the Φr of standard in data set [3] (in CH3CN) was 0.062.
For `CCCCCCOc1ccc(-n2c(=O)c3cc4cc5c(-c6ccc(C#N)cc6)c6c(=O)n(-c7ccc(OCCCCCC)cc7)c(=O)c6cc5cc4c(-c4ccc(C#N)cc4)c3c2=O)cc1` [DC], the “Abs. λmax” value in data set [9] (ACN (38.8)) is given as 423 nm; in data set [9] (Acetone (20.1)), 423 nm; in [9] (C2H4Cl2 (10.7)) it was 425 nm; in [9] (CHCl3 (4.8)), 425 nm; in [9] (Ethyl Acetate (6.02)), 418 nm; in data set [9] (THF (7.6)) it was 420 nm. Also, in [9] (Toluene (2.4)), the “Abs. λmax” value amounted to 417 nm. Also, the Φr is 0.0051 in data set [10] (ACN (38.8)); 0.0062 in [10] (Acetone (20.1)); 0.017 in data set [10] (C2H4Cl2 (10.7)); 0.025 in [10] (CHCl3 (4.8)); 0.012 in data set [10] (Ethyl Acetate (6.02)); 0.013 in data set [10] (THF (7.6)). In addition, the Φr in data set [10] (Toluene (2.4)) is 0.046. In addition, the emission bands in data set [11] was ~434 nm and ~461 nm and ~492 nm. The “calculated dipole change (Δμ)” value in data set [12] (Lippert-Mataga correlation) is given as 31.1 D. Moreover, the “Stokes' shift of charge transfer excited state” value in [12] (from toluene to acetonitrile) was 95 nm. Moreover, the “Em. λmax” value in data set [13] (ACN (38.8)) was 600(p) nm; in data set [13] (Acetone (20.1)) it was 599(p) nm; in data set [13] (C2H4Cl2 (10.7)), 571(p) nm; in [13] (CHCl3 (4.8)), 555(p) nm and 504(s) nm; in data set [13] (Ethyl Acetate (6.02)), 573(p) nm; in data set [13] (THF (7.6)), 579(p) nm. In addition, in data set [13] (Toluene (2.4)), the “Em. λmax” value is 505(s) nm and 543(p) nm. The 1τ is reported as less than 0.20 ns in data set [14] (ACN (38.8)); less than 0.20 ns in [14] (Acetone (20.1)); 0.21 ns in [14] (C2H4Cl2 (10.7)); 0.27 ns in data set [14] (CHCl3 (4.8)); less than 0.20 ns in [14] (Ethyl Acetate (6.02)); less than 0.20 ns in data set [14] (THF (7.6)). The 1τ in [14] (Toluene (2.4)) was determined as 0.39 ns.
Consider “N,N′-Bis(m-(boronic acid)phenyl)-1,5-bis(phenyl)anthracene-2,3,6,7-tetracarboxyl diimide”, for which the “lifetime (single exponential)” value in data set [1] was 5-5.5 ns.
